Source: US20210346312A1, “Flat Product for Microbiological Sanitation of the Urogenital Tract” (Tecuro Medical GmbH, priority 2018, published 2021)

Test system: Reconstituted human 3D EpiVaginal models
Experiment: Cytotoxicity test (MTT assay, based on DIN ISO 10993-5)
Type: cell-based
Settings: positive control, 1%, typical value
Method: To determine the compatibility of a planar product for treatment of the urogenital tract, the Cytotoxicity Test described below can be used. It is based on the standard DIN ISO 10993-5.
Reconstituted human 3D EpiVaginal models (e.g., MatTek) are used. To this end, an element of 6 mm in diameter from a planar product according to the invention is topically applied to the 3D EpiVaginal skin models and incubated on the models for 3 and 18 hours. Skin models treated with sterile water are used as negative control, and skin models treated with the […] surfactant Triton X-100 (1%) are used as positive control. The vitality of the skin models is evaluated in the MTT assay (3-(4,5-dimethylthiazol-2-yl)-2,5-diphenyltetrazolium bromide) (see Stockert et al. Acta Histochemica 120: 159-167 (2018), doi: 10.1016/j.acthis.2018.02.005; Chacon et al. In Vitro Methods in Pharmaceutical Research, ISBN 9780080534602 and https://en.wikipedia.org/wiki/MTT_assay). This involves setting the vitality value of the negative control to 100%. […] According to the invention, what is considered to be an acceptable value is typically a vitality of >80% after 18 h.

Substance: Triton X-100
- vitality after 3 h of incubation (3 h): 25%
- vitality after 18 h (18 h): less than 10%
